Residues, ends and D or L forms follow the SMILES beside them. No end group written: not given here.
Tested on: E. coli K-12 UT580
Experiment: Growth inhibition assay, filter discs on LB soft agar
Format: cell-based
Details: area of clear zone around filter disc, over night at 37° C.
Method: FIG. 4. Growth inhibition of E. coli K12 UT580.
Growth inhibition assay. […] To each filter was added 10 μl of one of the different peptide stock solutions (20 μM to 80 μM). […] Compare FIG. 4 and Table I on the following two pages.
In the case of SGRKSTRVHHWLLVL [compound 2], the “growth inhibition (area/μM)” value is reported as 3.05 area/μM. With RLHYLF [compound 8, RLHYLF] the “growth inhibition (area/μM)” value was 0.90 area/μM. In the case of RIHFIPRRGR [compound 7], the “growth inhibition (area/μM)” value is reported as 0.77 area/μM. In the case of GLRGKTRVHYLVLG [peptide 1], the “growth inhibition (area/μM)” value is reported as 3.65 area/μM. For RHWSIF [compound 11, RHWSIF], the “growth inhibition (area/μM)” value was 1.30 area/μM. In the case of RHYLLF [compound 13, RHYLLF], the “growth inhibition (area/μM)” value is reported as 0.83 area/μM. With RHITLF [compound 15, RHITLF] the “growth inhibition (area/μM)” value was 0.27 area/μM.

Target: T1, PTS Enzyme I (Escherichia coli, UniProt P08839)
T1 construct: made in house
Experiment: Inhibition of sugar uptake assay (enzyme I dependent GlcNAc phosphorylation), low molecular weight compounds
Format: biochemical, E. coli
Details: compounds at 25-200 μM, DMSO control taken as 100%; read-out: Activity against PTS Enzyme I IC50
Excerpt: To find inhibitors of Enzyme I of the PTS by high throughput screening, an in vitro assay based on spectrophotometric read out at 340 nm has been set up. The assay comprises of three major components: purified enzyme I in catalytic amounts, PEP as the phosphoryl donor substrate, and purified HPr as the phosphoryl acceptor substrate. The assay couples the formation of pyruvate from PEP with its reduction to lactate, catalyzed by lactate dehydrogenase. The disappearance of NADH, cofactor required by lactate dehydrogenase, is monitored colorimetrically at 340 nm. The assay is done in a U-shaped microtiter plate format, and quantitation is done using microplate absorbance reader.
Reaction mixtures, each 100 μl, are used in the assay. Each reaction mixture contains 0.8 mM PEP, 0.2 mM NADH, 3 μg lactate dehydrogenase (Boehringer Mannheim), 50 mM KPi pH=7.5, 2.5 mM dithiothreitol, 2.5 mM NaF, 5 mM MgCl2, and between 25 and 200 μM of one of the organic compounds to be tested. […]
Once the inhibitors of Enzyme I of the PTS are identified by high throughput screening, inhibition of enzyme I dependent sugar phosphorylation activity is measured with the inhibition of sugar uptake assay detailed below.
This assay measures the inhibition of enzyme I dependent sugar phosphorylation activity. […] Activity is expressed as nmoles of sugar-P formed after 30 min. […]
Compound `O=C1NN=C(c2ccccc2)CC1Cc1ccc(O)cc1` (centres unmarked) [4-(4-Hydroxy-benzyl)-6-phenyl-4,5-dihydro-2H-pyridazin-3-one] has an IC50 of 20 µM. With `Cc1cc(-c2onc(C)c2C(=O)Sc2ccc(Cl)cc2)no1` [5,3′-Dimethyl-[3,5′]-biisoxazolyl-4′-carbothioic acid-S-(4-chloro-phenyl) ester] the IC50 was 50 µM.

Target: T2, enzyme I (Escherichia coli, UniProt P08839)
T2 construct: made in house
Experiment: biochemical
Format: biochemical, E. coli
Details: in vitro PTS activity, purified HPr, enzyme I and IIGlcNAc, 30 min at 37° C.; Table I; read-out: inhibition IC50
Excerpt: (d) Inhibition of in vitro PTS activity. The inhibitory activity of soluble compounds can be measured quantitatively in the sugar phospbotransferase assay in the presence of the purified PTS proteins and with [^14C]GlcNAc ([^14C]N-acetyl-glucosamine) or [^14C]Glc ([[…] as terminal phosphate acceptor (Erni et al., 1982 J. Biol. Chem. 257:13726-13730).
Inhibition of phosphotransferase activity by soluble peptides. This assay measures the inhibition of enzyme I dependent sugar phosphorylation activity. […] The purified N-acetylglucosamine transporter (II^GlcNAc) of E. coli (Mukhija and Erni, 1996) was used as the sugar specific component. The reaction mixture contained per 100 μl, 100 μg phosphatidyl glycerol from egg yolk (Sigma), 50 mM KPi, pH 7.5, 2.5 mM dithiothreitol, 2.5 mM NaF, 5 MM MgCl2, 1 mM phosphoenolpyruvate (potassium salt, Sigma), 0.5 mM [U-^14C]GlcNAc (New England Nuclear; 56.3 mCi/mmol, diluted to 1000 cpm/nmol), and 3 μM each of purified HPr and enzyme I (Mao et al., 1995 J. Biol. Chem. 270:5258-5265). The reaction was started by addition of 0.1 μg of II^GlcNAc. After incubation for 30 min at 37° C., the reaction was stopped by adding 1 ml ice-cold water. GlcNAc-6-Phosphate was separated from free Glc-NAc by anion-exchange chromatography on AG-1-X2 (50-100 mesh, Biorad). Activity is expressed as nmoles of sugar-P formed after 30 min. The HPr concentration was adjustedsuch that it was rate limiting in the overall phosphotransferase reaction. The inhibitory peptides were added to concentrations of 25 μm to 10 mM. Phosphorylation of GlcNAc in the absences of peptide was taken as 100%.
With `CSCC[C@H](N)C(=O)N[C@@H](CCCNC(=N)N)C(=O)N[C@@H](CC(C)C)C(=O)N[C@@H](CC(C)C)C(=O)N[C@@H](CCCCN)C(=O)N[C@H](C(=O)N[C@@H](CC(C)C)C(=O)N[C@@H](CS)C(=O)N[C@@H](Cc1ccccc1)C(=O)NCC(=O)N[C@@H](CC(C)C)C(=O)N[C@@H](CS)C(=O)NCC(=O)O)[C@@H](C)O` [compound 18] (H-MRLLKTLCFGLCG-OH; N-terminus and C-terminus assumed) the IC50 was 3500 µM. Compound `CSCC[C@H](NC(C)=O)C(=O)N[C@@H](CCCNC(=N)N)C(=O)N[C@@H](CC(C)C)C(=O)N[C@@H](CC(C)C)C(=O)N[C@@H](CCCCN)C(=O)N[C@H](C(=O)N[C@@H](CC(C)C)C(=O)N[C@@H](CS)C(=O)N[C@@H](Cc1ccccc1)C(=O)N[C@H](C(=O)NCC(=O)N[C@@H](CC(C)C)C(=O)N[C@@H](CS)C(=O)NCC(=O)O)C(C)C)[C@@H](C)O` [compound 19] (Ac-MRLLKTLCFVGLCG-OH) has an IC50 greater than 10000 µM.

Same assay, conditions: peptides from support-based combinatorial libraries; Table 2
For KKFALRK [compound 21], the “inhibition IC50” value was “none”.

Target: T2, enzyme I
Experiment: Pyruvate formation coupled to lactate dehydrogenase (uncoupling / phosphatase activity)
Format: biochemical, E. coli
Details: Table 2
Excerpt: The assay can be performed in microtiter plates and quantitated with a microplate photoreader. Another assay to monitor phosphatase activity of soluble compounds is based on the detection of pyruvate which is continuously produced from phosphoenolpyruvate whenever enzyme I is dephosphorylated. The enzyme I-specific phosphatase activity of soluble compounds can be detected from the pyruvate burst. The rate of pyruvate formation is monitored with lactate dehydrogenase and NADH. The assay can be performed in microtiter plates and quantitated with a microplate photoreader.
For KKWHKRKK [compound 27], the “uncoupling P1/peptide/h” value was 0.215 P1/peptide/h. With “HPr protein: small (9 kD) soluble phosphorylcarrier protein HPr, natural phosphoryl acceptor of enzyme I” the “uncoupling P1/peptide/h” value was 2.70 P1/peptide/h. For KKFDLRK [compound 22, KKFDLRK], the “uncoupling P1/peptide/h” value was 0.05 P1/peptide/h. In the case of KKWHLRKR [compound 24], the “uncoupling P1/peptide/h” value is reported as 0.3 P1/peptide/h. With KGWHKRKK [compound 25] the “uncoupling P1/peptide/h” value was 0.23 P1/peptide/h. With KKFHIRKR [compound 28] the “uncoupling P1/peptide/h” value was 0.31 P1/peptide/h. In the case of KKWHRRKK [compound 26], the “uncoupling P1/peptide/h” value is reported as 0.29 P1/peptide/h. For XXKKWHLRKRXX [compound 23], the “uncoupling P1/peptide/h” value was 0.43 P1/peptide/h. For KKFHLRK [compound 20, KKFHLRK], the “uncoupling P1/peptide/h” value was 0.49 P1/peptide/h.

Same assay, conditions: μM NADH consumed per μM peptide per one hour multiplied by the IC50 (μM)
For KISRHGRPTG [compound 6], the “uncoupling P1/peptide (x IC50/h)” value was 479.3 x IC50/h. In the case of SGRKSTRVHHWLLVL [compound 2], the “uncoupling P1/peptide (x IC50/h)” value is reported as 6.6 x IC50/h. In the case of RLHYLF [compound 8, RLHYLF], the “uncoupling P1/peptide (x IC50/h)” value is reported as 64.2 x IC50/h. In the case of RIHFIPRRGR [compound 7], the “uncoupling P1/peptide (x IC50/h)” value is reported as 39.6 x IC50/h. With Ac-DGARLHYLF [compound 10] the “uncoupling P1/peptide (x IC50/h)” value was 15.2 x IC50/h. In the case of KISRHGKRGK [compound 5], the “uncoupling P1/peptide (x IC50/h)” value is reported as 1.9 x IC50/h. For GLRGKTRVHYLVLG [peptide 1], the “uncoupling P1/peptide (x IC50/h)” value was 3.2 x IC50/h. For KMSRHRKPGA [compound 3], the “uncoupling P1/peptide (x IC50/h)” value was 22.2 x IC50/h. For MSRHRN [compound 16, MSRHRN], the “uncoupling P1/peptide (x IC50/h)” value was 143.8 x IC50/h. In the case of DGARLHYLF [compound 9], the “uncoupling P1/peptide (x IC50/h)” value is reported as 132.3 x IC50/h.

Tested on: not listed separately
Experiment: Growth inhibition MIC (Table 2)
Format: cell-based
Details: not given
In the case of XXKKWHLRKRXX [compound 23], the “growth inhibition MIC” value is reported as 44.7 µM.

— US6777176B1, “Target system” (priority 1997, dated 2004)
